Test results as given in PMC6270778, “Novel Cinnamic Acid Derivatives as Antioxidant and Anticancer Agents: Design, Synthesis and Modeling Studies” (Molecules, 2014).
Where “and” joins values, the source holds several entries; their conditions need not be identical. Equal values may be shown once.

Legend:
[1] = Inhibition of linoleic acid peroxidation (AAPH); conditions: 0.1 mM
Description: For the in vitro study of the free radical production, azo compounds generating free radicals through spontaneous thermal decomposition are used. The water soluble 2,2'-azobis(2-amidinopropane) hydrochloride (AAPH) is recommended as appropriate for measuring radical-scavenging activity in vitro. The activity of the peroxyl radicals produced by the action of AAPH greatly resembles to cellular activities such as lipid peroxidation. The phenyl substituted acids presented remarkable activity at 0.1 mM concentration (84%–92%) compared to the non-substituted derivatives (20%–63%).
For initiating the free radical, 2,2'-azobis(2-amidinopropane) dihydrochloride (AAPH) is used. The final solution in the UV cuvette consisted of ten microliters of the 16 mM linoleate sodium dispersion 0.93 mL of 0.05 M phosphate buffer, pH 7.4, thermostatted at 37 °C. 50 μL of 40 mM AAPH solution was added as a free radical initiator at 37 °C under air and 10 μL of the tested compounds. The oxidation of linoleic acid sodium salt results a conjugated diene hydroperoxide. The reaction is monitored at 234 nm (Table 3).

[2] = system: HeLa (immortal cells from cervical cancer); assay: SRB cytotoxicity assay, HeLa; format: cell-based; conditions: Homo sapiens, 50% growth inhibition, 48 h exposure
Experimental: (§1) Human cancer cell lines used as targets were HT-29 (colon), A-549 (lung), OAW-42 (ovarian), MDA-MB-231 (breast), HeLa (immortal cells from cervical cancer). All cells were obtained from the American Type Culture Collection (ATCC). Cells were routinely grown as monolayer cell cultures in T-75 flasks (Costar) in an atmosphere containing 5% CO2 in air and 100% relative humidity at 37 °C and subcultured twice a week, restricting the total number of cell passages below 20. The culture medium used was Dulbecco’s modified Eagle’s medium (DMEM, Gibco, Grand Island, NY, USA) supplemented with 10% fetal bovine serum (Gibco), 2 mM glutamine (Sigma), 100 μg/mL streptomycin and 100 IU/mL penicillin.
(§2) Cell passages were carried out by detaching adherent, logarithmically growing cells after addition of 2–3 mL of a mixture of 0.05% solution of trypsin (Gibco, 1:250) in phosphate-buffered saline (PBS) with 0.02% EDTA and incubation for 3–5 min at 37 °C. For the experiments, cells were plated (100 μL containing 10,000 cells/well) in 96-well flat-bottom microplates microplates (Costar-Corning, Acton, MA 01720, USA) so that untreated cells were in exponential growth phase at the time of cytotoxicity evaluation. Cells were left for 24 h at 37 °C to resume exponential growth and stabilization and afterwards exposed to tested agents for 48 h by the addition of an equal volume (100 μL) of either complete culture medium (control wells), or twice the final drug concentrations diluted in complete culture medium (test wells). Drug cytotoxicity was measured by means of the SRB colorimetric assay estimating the survival fractions (SF) as the percent of control (untreated cells) absorbance. The SRB assay was carried out as previously described and modified by our group. In brief, culture medium was aspirated prior to fixation using a microplate-multiwash device (Tri-Continent Scientific, Inc., Grass Valley, CA, USA) and 50 μL of 10% cold (4 °C) trichloroacetic acid (TCA) were gently added to the wells. Microplates were left for 30 min at 4 °C, washed five times with deionized water and left to dry at room temperature for at least 24 h. Subsequently, 70 μL of 0.4% (w/v) sulforhodamine B (Sigma) in 1% acetic acid solution were added to each well and left at room temperature for 20 min. SRB was removed and the plates were washed five times with 1% acetic acid before air drying. Bound SRB was solubilized with 200 μL of 10 mM unbuffered Tris-base solution and plates were left on a plate shaker for at least 10 min. Absorbance was read in a 96-well plate reader at 492 nm subtracting the background measurement at 620 nm. The test optical density (OD) value was defined as the absorbance of each individual well, minus the blank value (“blank” is the mean optical density of the background control wells, n = 8). Mean values and the coefficient of variation (CV) from six replicate wells were calculated automatically. Results were expressed as the “survival fraction” (SF), as shown below.
(§3) For each tested compound a dose-effect curve was produced. Sextuplicate determinations gave a CV (Standard Deviation/mean %) of much less than 10%, resulting in standard error (SE) which was very low in all cases. The data showing inhibition of cellular growth are expressed as the fraction of cells that remains unaffected (fu) (survival fraction, SF), which is derived from the following equation: fu = ODx/ODc where ODx and ODc represent the test and the control optical density, respectively.

MDA-MB-231 (breast) = assay: SRB cytotoxicity assay, MDA-MB-231; format: cell-based; conditions: Homo sapiens, 50% growth inhibition, 48 h exposure
Experimental: as §1, §2, §3

[3] = Superoxide radical scavenging activity (non-enzymatic, PMS/NADH, NBT method); conditions: 0.1 mM; no = no action under the used experimental conditions
Experimental: The superoxide anion radical (O2^−·) is less toxic than the hydroxyl radical, but still being one of the most known toxic ROS. Two different experimental assays are followed for the determination of superoxide anion radical scavenging activity: (i) one involves an enzymatic production of superoxide anions and (ii) the other is supported by a non- enzymatic procedure. Herein the test is performed at 0.1 mM concentration, generating superoxide anion radicals by a non-enzymatically assay (Table 3). Compound 1i presented the highest activity, followed by compound 1ii (75% and 50%, respectively).
Superoxide radicals were produced non-enzymatically by mixing PMS, NADH and air–oxygen. The nitroblue tetrazolium method was used for the estimation of the produced radicals. The reaction mixture containing compounds (0.1 mM), 3 μM PMS, 78 μM NADH, and 25 μM NBT in 19 μM phosphate buffer pH 7.4 was incubated for 2 min at room temperature. The acrylic acids were preincubated for 2 min before adding NADH (Table 4) and the absorption was recorded at 560 nm.

[4] = Hydroxyl radicals scavenging activity (Fe3+/ascorbic acid system, competition with DMSO); conditions: 0.1 mM; no = no action under the used experimental conditions
Experimental: Thus we evaluated our acids for their competition with DMSO for ˙OH radicals was measured, hydroxyl radicals were produced by the Fe^3+/ascorbic acid system and expressed as percent inhibition of formaldehyde formation at 0.1 mM concentration (Table 3).
The hydroxyl radicals were produced by the Fe ^3+/ascorbic acid system. EDTA (0.1 mM), Fe ^3+ (167 μM), DMSO (33 mM) in phosphate buffer (50 mM, pH 7.4), the tested compounds (0.1 mM) and ascorbic acid (10 mM) were mixed in test tubes. The solutions were incubated at 37 °C for 30 min. The reaction was stopped by CCl3COOH (17% w/v) (Table 4) and the % scavenging activity of the tested compounds for hydroxyl radicals was given.

Compound | AAPH (%) (±SD), inhibition of linoleic acid peroxidation [1] | IC50 [2] [µM] | IC50 (MDA-MB-231 (breast)) [µM] | O2−· (%) (±SD) [3] | HO (%) (±SD) [4]
N#Cc1ccc(C=C(C(=O)O)c2ccccc2)cc1 [Compound 1i, 3-(4-Cyanophenyl)-2-phenylacrylic acid] | 92 ± 1.2 | > 240 | > 240 | 75% and 75 ± 1.0% | no
N#Cc1ccc(C=CC(=O)O)cc1 [Compound 1ii, 3-(4-Cyanophenyl)acrylic acid] | 20 ± 0.1 | > 240 | > 240 | 50% and 50 ± 0.5% | no
O=C(O)C(=CC=Cc1ccc([N+](=O)[O-])cc1)c1ccccc1 [Compound 2i, 5-(4-Nitrophenyl)-2-phenylpenta-2,4-dienoic acid] | 89 ± 0.9 | 118 ± 1.4 | 199 ± 1.9 | no | 33 ± 0.8%
O=C(O)C=CC=Cc1ccc([N+](=O)[O-])cc1 [Compound 2ii, 5-(4-Nitrophenyl)penta-2,4-dienoic acid] | 29 ± 0.7 | 240 ± 1.6 | > 240 | no | no
O=C(O)C(=CC=Cc1ccccc1)c1ccccc1 [Compound 3i, 2,5-Diphenylpenta-2,4-dienoic acid] | 84 ± 1.4 | > 240 | > 240 | no | 81 ± 1.9%
O=C(O)C=CC=Cc1ccccc1 [Compound 3ii, 5-Phenylpenta-2,4-dienoic acid] | 30 ± 1.0 | > 240 | > 240 | no | 81 ± 1.2%
O=C(O)C(=CC(Br)=Cc1ccccc1)c1ccccc1 [Compound 4i, 4-Bromo-2,5-diphenylpenta-2,4-dienoic acid] | 88 ± 1.8 | 80 ± 0.9 | 250 ± 1.2 | no | no
O=C(O)C=CC(Br)=Cc1ccccc1 [Compound 4ii, 4-Bromo-5-phenylpenta-2,4-dienoic acid] | 63 ± 1.1 | 30 ± 0.4 | 47.5 ± 0.7 | no | 100 ± 1.8%
